One assay concerns K. pneumoniae MKP103. The experiment in a line: MIC assay with or without SPR741, K. pneumoniae. Format: cell-based, Klebsiella pneumoniae. The following applies: for MIC: Klebsiella pneumoniae. As to the method:
(§1) We next sought to determine whether we could achieve growth inhibition of wild-type E. coli using MAC-0452936 and an antibiotic adjuvant. […] To that end, we determined the MIC of MAC-0452936 against wild-type E. coli in the presence and absence of a sub-MIC concentration of SPR741 (Figure S8B). […] We leveraged this combination to characterize the spectrum of activity of MAC-0452936 against a panel of Gram-negative pathogens (Table 2). In the presence of 8 μg/mL SPR741, we observed MAC-0452936 activity against the clinical E. coli isolates C0244 and CFT073 at 2 μg/mL as well as against Salmonella Typhimurium SL1344 at 4 μg/mL.
(§2) For MIC assays, cultures of bacteria were grown in LB broth. Overnight cultures were diluted (1:100) into fresh LB media and grown to the mid-log phase of growth (OD600 ∼0.5). Subcultures were then normalized to an OD600 of 0.1, and diluted (1:5000) into assay media. Assay plates were then incubated for 18 h at 37°C, then OD600 was measured using a Biotek Neo plate reader.

Another assay has as its system P. aeruginosa PA01. The experiment in a line: MIC assay with or without SPR741, P. aeruginosa. Format: cell-based, Pseudomonas aeruginosa. The following applies: for MIC: Pseudomonas aeruginosa. The procedure:
as §1, §2

The test system of a further assay is E. coli ΔtolC-pore Δlpp. The experiment in a line: MIC in lpp deletion background. Format: cell-based. Particulars: E. coli ΔtolC-pore Δlpp versus E. coli ΔtolC-pore. The text has this:
(§3) We next turned to genetic approaches to confirm the mechanism of action of MAC-0452936. […] To that end, we screened the E. coli CRISPRi collection in the ΔtolC-pore genetic background with a sub-inhibitory concentration of MAC-0452936 and measured the fitness of all 356 CRISPRi mutants (Figure 4C and Data S4). […] Depletion of Lgt by CRISPRi provided supporting evidence that MAC-0452936 targeted Lgt in E. coli; however, we sought to confirm this observation using a parallel genetic approach. We hypothesized that MAC-0452936 potency would also be affected by high-copy expression of lgt. To that end, we introduced either an arabinose inducible copy of lgt supplied on the pCHAP9231 plasmid[48] or the pBAD19s plasmid as a control into E. coli ΔtolC-pore and tested the potency of MAC-0452936 (Figure 4E). Induction of lgt expression with arabinose suppressed the activity of MAC-0452936 by about 8-fold. […] To test this hypothesis, we constructed E. coli ΔlgtΔtolC-pore with pCHAP9231[48] so that lgt expression was driven solely by arabinose from the plasmid. […] To test this observation with MAC-0452936, we introduced an lpp deletion into our screening strain E. coli ΔtolC-pore and assessed the activity of our Lgt inhibitor in this mutant background. […]

The subject of assay [1] is E. coli ΔlgtΔtolC-pore pCHAP9231. The experiment in a line: MIC with arabinose-titrated lgt expression. Format: cell-based. The following applies: lgt expression driven solely by arabinose from pCHAP9231.
Description: as §3

In assay [2] the test system is E. coli and the Gram-positive organisms Staphylococcus aureus and Bacillus subtilis. The experiment in a line: Growth inhibition in dose of E. coli and Gram-positive organisms. It is filed as cell-based. Particulars: tested in dose against E. coli, S. aureus and B. subtilis. As to the method: Of these 24 compounds, six were prioritized for further follow-up based on structural novelty relative to known antibacterial scaffolds and were tested in dose for growth inhibition of E. coli and the Gram-positive organisms Staphylococcus aureus and Bacillus subtilis (Figure S5). We hypothesized that compounds active against E. coli, but not the Gram-positive organisms, might target processes involved in the Gram-negative outer-membrane synthesis, many of which were identified as possible targets in our genetic screen. Importantly, these processes are either absent or not essential for growth in Gram-positive organisms, offering promise for narrow-spectrum applications.
as §2

The test system of another assay is E. coli CFT073. The experiment in a line: MIC assay with or without SPR741, E. coli CFT073. It is filed as cell-based. Particulars: Escherichia coli. The procedure:
as §1, §2

For another assay, the system named is A. baumannii ATCC17978. The experiment in a line: MIC assay with or without SPR741, A. baumannii. It is filed as cell-based, Acinetobacter baumannii. The following applies: for MIC: Acinetobacter baumannii. The procedure:
as §1, §2

Molecules are shown by their SMILES. “Also recorded” adds a separate entry of the source. Read-outs that look alike come from different tables or passages of the source. Bounds are passed on as bounds.

In the case of `COc1ccc(C(=O)O/N=C(\c2cccs2)C(C)(C)C)cc1` [MAC-0452936, (Z)-2-Pivaloylthiophene O-(4-methoxybenzoyl) oxime], the “MIC, K. pneumoniae MKP103 + 8 μg/mL SPR741” value in the assay with K. pneumoniae MKP103 (8 μg/mL SPR741) is “did not observe MAC-0452936 activity”. Also, the MIC in the assay on K. pneumoniae MKP103 (MKP103, read-out: MIC, K. pneumoniae MKP103 + 0 μg/mL SPR741) is above 64 µg/mL; with K. pneumoniae MKP103 (MKP103, read-out: MIC, K. pneumoniae MKP103 + 8 μg/mL SPR741), above 64 µg/mL; in the assay with P. aeruginosa PA01 (PA01, read-out: MIC, P. aeruginosa PA01 + 8 μg/mL SPR741), above 64 µg/mL; in the assay with P. aeruginosa PA01 (PA01, read-out: MIC, P. aeruginosa PA01 + 0 μg/mL SPR741) it was above 64 µg/mL; in the assay with E. coli CFT073 (CFT073, read-out: MIC, E. coli CFT073 + 8 μg/mL SPR741), 2 µg/mL; in the assay on E. coli CFT073 (CFT073, read-out: MIC, E. coli CFT073 + 0 μg/mL SPR741), above 64 µg/mL. For the same molecule, the MIC is above 64 µg/mL with A. baumannii ATCC17978 (ATCC17978, read-out: MIC, A. baumannii ATCC17978 + 8 μg/mL SPR741) and above 64 µg/mL with A. baumannii ATCC17978 (ATCC17978, read-out: MIC, A. baumannii ATCC17978 + 0 μg/mL SPR741). For the same molecule, the “MIC, P. aeruginosa PA01 + 8 μg/mL SPR741” value in the assay with P. aeruginosa PA01 (8 μg/mL SPR741) is given as “did not observe MAC-0452936 activity”. Further, the “sensitization by deletion of lpp” value in the assay on E. coli ΔtolC-pore Δlpp turned out to be 2 fold. The “change of MIC with increasing arabinose concentrations” value in assay [1] was “dose-dependent increase in the MIC; also recorded: increase with increasing”. In addition, the “spectrum of growth inhibition, E. coli versus Gram-positive organisms” value in assay [2] was “specifically inhibit E. coli”. For the same molecule, the “MIC, A. baumannii ATCC17978 + 8 μg/mL SPR741” value with A. baumannii ATCC17978 (8 μg/mL SPR741) is “did not observe MAC-0452936 activity”.

Source of the values: PMC11456916, “A screen for cell envelope stress uncovers an inhibitor of prolipoprotein diacylglyceryl transferase, Lgt, in Escherichiacoli” (iScience, 2024).
